Laboratory results: patent publication US20040005537A1, “Method of identifying toxic agents using differential gene expression” (priority 2000, published 2004)

Tested on: rat heart tissue
Experiment: GENECALLING differential gene expression analysis after dosing of serotonin modulating agents
Type: in vivo, Sprague Dawley rats
Description: Control animals received sterile water or canola oil. The animals were sacrificed 24 hours following the last dose. Liver tissue was dissected from the animals, and total RNA was recovered from the dissected tissue. cDNA was prepared and the resulting samples were processed through using GENECALLING™ differential expression analysis as described in U.S. Pat. No. 5,871,697 and in Shimkets et al., Nature Biotechnology 17:798-803 (1999). The contents of these patents and publications are incorporated herein by reference in their entirety.
Thousands of gene fragments were initially found to be differentially expressed in rat heart tissue in response to serotonin modulating agents in. Genes fragments whose expression levels were modulated greater than ±1.5-fold were selected for further analysis.
Column 6 of Table 1, entitled “Function”, lists the type of classification assigned for the protein, based on its function. The 210 single nucleic acid sequences identified herein, are referred to herein as CARDIOTOX 1-210.

SMILES: CC(C)CC(N(C)C)C1(c2ccc(Cl)cc2)CCC1 (stereo not shown) [sibutramine]
- Effects on Transcription Level: Novel gene fragment, 467 bp, 94% SI to mouse gelsolin [J04953] (CARDIOTOX 70): −1.7 fold
- Effects on Transcription Level: Novel gene fragment, 535 bp, 90% SI to mouse slow/cardiac troponin C [M29793] (CARDIOTOX 71): −1.9 fold
- Effects on Transcription Level: Novel gene fragment, 445 bp, 85% SI to human skeletal muscle alpha 2 actinin [M86406] (CARDIOTOX 72): −2.2 fold
- Effects on Transcription Level: Novel gene fragment, 246 bp, 89% SI to mouse ponsin-1 [AF078667] (CARDIOTOX 73): −2.8 fold
- Effects on Transcription Level: Novel gene fragment, 126 bp, 77% SI to human DNA sequence from cosmid V311G7, between markers DXS366 and DXS87 on chromosome X [Z69304] (CARDIOTOX 74): +2.2 fold
- Effects on Transcription Level: Novel gene fragment, 370 bp (CARDIOTOX 75): −1.9 fold
- Effects on Transcription Level: Novel gene fragment, 337 bp, 78% SI to novel human protein AHNAK [M80899] (CARDIOTOX 76): −3.5 fold
- Effects on Transcription Level: Novel gene fragment, 100 bp, 93% SI to human KIAA0750 protein [ABO18293] (CARDIOTOX 77): −8.4 fold
- Effects on Transcription Level: Novel gene fragment, 44 bp (CARDIOTOX 78): −2.9 fold
- Effects on Transcription Level: Novel gene fragment, 698 bp, 93% SI to mouse plenty-of-prolines-101 [AF062655] (CARDIOTOX 79): −2.3 fold
- Effects on Transcription Level: Novel gene fragment, 660 bp, 84% SI to mouse membrane protein TMS-2 [AF181685] (CARDIOTOX 80): −1.9 fold
- Effects on Transcription Level: Novel gene fragment, 115 bp (CARDIOTOX 81): −13.1 fold
- Effects on Transcription Level: Novel gene fragment, 294 bp, 95% SI to mouse Ndr1 related protein Ndr2 [AB033921] (CARDIOTOX 82): −3.3 fold
- Effects on Transcription Level: Novel gene fragment, 198 bp (CARDIOTOX 83): +3.1 fold
- Effects on Transcription Level: Novel gene fragment, 730 bp, 86% SI to mouse E800 [Y10968] (CARDIOTOX 84): −2.1 fold
- Effects on Transcription Level: Novel gene fragment, 294 bp, 98% SI to cysteine conjugate beta-lyase [S61960] (CARDIOTOX 85): −2.1 fold
- Effects on Transcription Level: Aconitase (CARDIOTOX 86, GenBank A1243266): −2.9 fold
- Effects on Transcription Level: Ribosomal protein L7 (CARDIOTOX 87, GenBank M17422): +3.7 fold
- Effects on Transcription Level: Ribosomal protein L9 (CARDIOTOX 88, GenBank X51706): +8.0 fold
- Effects on Transcription Level: Ribosomal protein L12 (CARDIOTOX 89, GenBank X53504): −1.5 fold
- Effects on Transcription Level: 18S, 5.8S, and 28S ribosomal RNA's (CARDIOTOX 90, GenBank V01270): +6 fold
- Effects on Transcription Level: Pyruvate dehydrogenase kinase 2 (PDK2) (CARDIOTOX 91, GenBank U10357): −9.5 fold
- Effects on Transcription Level: D-Binding Protein (DBP) (CARDIOTOX 92, GenBank J03179): −1.7 fold
- Effects on Transcription Level: Lipoprotein lipase (CARDIOTOX 93, GenBank L03294): −2.5 fold
- Effects on Transcription Level: Non-neuronal enolase (CARDIOTOX 94, GenBank X02610): +3.1 fold
- Effects on Transcription Level: Glycogen phosphorylase (muscle isozyme) (CARDIOTOX 95, GenBank L10669): −2.0 fold
- Effects on Transcription Level: Cytochrome c oxidase subunit IV (CARDIOTOX 96, GenBank X14209): +8.0 fold
- Effects on Transcription Level: Alpha-globin (CARDIOTOX 97, GenBank M17083): +7.0 fold
- Effects on Transcription Level: Beta-globin (CARDIOTOX 98, GenBank X06701): +5.0 fold
- Effects on Transcription Level: Myoglobin (CARDIOTOX 99, GenBank AF197916): +7.0 fold
- Effects on Transcription Level: Titin (CARDIOTOX 100, GenBank L38717): +1.5 fold
- Effects on Transcription Level: Skeletal muscle actin (CARDIOTOX 101, GenBank V01218): −3.8 fold
- Effects on Transcription Level: Myosin light chain 2 (MLC2) (CARDIOTOX 102, GenBank M11851): +1.9 fold
- Effects on Transcription Level: Alpha cardiac myosin heavy chain (CARDIOTOX 103, GenBank X15938): −3.2 fold
- Effects on Transcription Level: Troponin I (CARDIOTOX 104, GenBank U77354): +1.6 fold
- Effects on Transcription Level: Cardiac calsequestrin (CARDIOTOX 105, GenBank AF001334): −2.5 fold
- Effects on Transcription Level: Sulfated glycoprotein 2 (CARDIOTOX 106, GenBank M16975): −1.5 fold
- Effects on Transcription Level: Aquaporin 7 (CARDIOTOX 107, GenBank AB000507): +1.6 fold
- Effects on Transcription Level: Carnitine/acylcarnitine carrier protein (CARDIOTOX 108, GenBank X97831): −1.9 fold
- Effects on Transcription Level: Glu-Pro Dipeptide Repeat (CARDIOTOX 109, GenBank U40628): −5.5 fold
- Effects on Transcription Level: Cystatin beta (CARDIOTOX 110, GenBank X54737): +3.1 fold
- Effects on Transcription Level: Novel gene fragment, 593 bp, 90% SI to human calcineurin B-like protein [Z08983] (CARDIOTOX 111): +2.1 fold
- Effects on Transcription Level: Novel gene fragment, 179 bp, 88% SI to human titin [X90568] (CARDIOTOX 112): −2.0 fold
- Effects on Transcription Level: Novel gene fragment, 700 bp, 91% SI to mouse periplakin (PPL) [AF116523] (CARDIOTOX 113): +2.2 fold
- Effects on Transcription Level: Long chain acyl-CoA dehydrogenase (LCAD) (CARDIOTOX 114, GenBank J05029): +1.8 fold
- Effects on Transcription Level: Sulfated glycoprotein 1 (SGP-1) (CARDIOTOX 115, GenBank M19936): −2.3 fold
- Effects on Transcription Level: Catalase (CARDIOTOX 116, GenBank M11670): +1.8 fold
- Effects on Transcription Level: Alpha-fodrin (A2A) (Nonerythroid spectrin alpha subunit) (CARDIOTOX 117, GenBank AF084186): +5.0 fold
- Effects on Transcription Level: Cardiac specific sodium channel alpha-subunit (CARDIOTOX 118, GenBank M27902): −2.9 fold
- Effects on Transcription Level: Glu-Pro Dipeptide Repeat (CARDIOTOX 119, GenBank U40628): +6.0 fold
- Effects on Transcription Level: Novel gene fragment, 200 bp, 64% SI to human KIAA0733 protein [AB018316] (CARDIOTOX 120): −1.5 fold
- Effects on Transcription Level: RNA polymerase II transcription factor SIII (p18 subunit) (CARDIOTOX 121, GenBank L42855): +2.0 fold
- Effects on Transcription Level: Protein-tyrosine phosphalase (LRP) (CARDIOTOX 122, GenBank L01702): +1.5 fold
- Effects on Transcription Level: Skeletal muscle selenoprotein W (SelW) (CARDIOTOX 123, GenBank U25264): −1.5 fold
- Effects on Transcription Level: Sarcoplasmic reticulum 2+-Ca-ATPase (CARDIOTOX 124, GenBank X15635): −2.0 fold
- Effects on Transcription Level: Ribosomal protein S7 (CARDIOTOX 125, GenBank X53377): +1.8 fold
- Effects on Transcription Level: Ribophorin I (CARDIOTOX 126, GenBank X05300): +1.6 fold
- Effects on Transcription Level: Beta cardiac myosin heavy chain (CARDIOTOX 127, GenBank X15939): −1.7 fold
- Effects on Transcription Level: ADP-ribosylation factor 1 (CARDIOTOX 128, GenBank L12380): −2.0 fold
- Effects on Transcription Level: Laminin receptor (CARDIOTOX 129, GenBank U04942): +4.6 fold
- Effects on Transcription Level: Novel gene fragment, 206 bp, 89% SI to human seryl-tRNA synthetase [X91257] (CARDIOTOX 130): +1.4 fold
- Effects on Transcription Level: Annexin VI (CARDIOTOX 131, GenBank X86086): +1.4 fold
- Effects on Transcription Level: Novel gene fragment, 325 bp, 90% SI to mouse N-RAP [U76618] (CARDIOTOX 132): −1.1 fold
- Effects on Transcription Level: Novel gene fragment, 61 bp (CARDIOTOX 134) (LD10 dose for three days): +1.0 fold
- Effects on Transcription Level: Novel gene fragment, 337 bp (CARDIOTOX 133) (LD10 dose for three days): −1.1 fold
- Effects on Transcription Level: Novel gene fragment, 378 bp, 88% SI to human coatomer protein (COPA) [U24105] (CARDIOTOX 138) (LD10 dose for three days): −2.3 fold
- Effects on Transcription Level: Long chain 3-ketoacyl-CoA thiolase (CARDIOTOX 136) (LD10 dose for three days, GenBank D16479): −2.0 fold
- Effects on Transcription Level: TATA-binding protein interacting protein 120 (TIP120) (CARDIOTOX 135) (LD10 dose for three days, GenBank D87671): +1.3 fold
- Effects on Transcription Level: Serine protease (CARDIOTOX 139) (LD10 dose for three days, GenBank D88250): +1.3 fold
- Effects on Transcription Level: Thymosin beta-4 (CARDIOTOX 137) (LD10 dose for three days, GenBank M34043): +1.5 fold
